Columns and labels:
human skin warts = assay: topical treatment of human skin warts; assay type: in vivo; conditions: topical application
Description: Initial steps involved extracting Tecoma stans leaves with methanol or ethanol alcohol. Then, the extract was obtained via evaporating the alcohol and re-suspending the dry matter in pure DMSO (dimethylsulphoxide) at a concentration of 20 mg/mL DMSO. […] As disclosed herein, 14 compounds have been isolated from dry leaves of Tecoma stans, four of which are known for their antidiabetic effect and ability to reduce the glycemic index. After identifying the 14 compounds in the methanolic extract from the dry leaves, each compound was independently tested on human skin warts. […] Therefore, corosolic acid was mixed with its two related compounds, namely oleanolic acid (FIG. 1E) and ursolic acid (FIG. 1F), isolated from the same extract. Compositions containing a mixture of these three compounds were prepared by mixing the compounds in an ointment at a concentration of 1 mg/gm of each compound per a total weight of the ointment, emulsifying the compounds in a lotion base at a concentration of 0.1 mg/mL of each compound per a total volume of the lotion, or suspending three compounds together in DMSO at a concentration of 1 mg/mL of each compound per a total volume of DMSO. The compositions were applied topically twice a day to the desired skin area as indicated in each case (see FIGS. 3[…]).

[1] = skin tolerability on tested subjects after topical application; assay type: in vivo, human

| SMILES | curing effect on skin warts (human skin warts) | harmlessness on humans / skin irritation [1] |
| --- | --- | --- |
| C[C@H]1[C@H](C)CC[C@]2(C(=O)O)CC[C@]3(C)C(=CC[C@@H]4[C@@]5(C)C[C@@H](O)[C@H](O)C(C)(C)[C@@H]5CC[C@]43C)[C@H]12 [corosolic acid, (2α,3β)-2,3-dihydroxyurs-12-en-28-oic acid] | minor curing effect | harmless on humans, and cause no skin irritations |
| CC1(C)CC[C@]2(C(=O)O)CC[C@]3(C)C(=CC[C@@H]4[C@@]5(C)CC[C@H](O)C(C)(C)[C@@H]5CC[C@]43C)[C@@H]2C1 [oleanolic acid] | – | harmless on humans, and cause no skin irritations |
| C[C@H]1[C@H](C)CC[C@]2(C(=O)O)CC[C@]3(C)C(=CC[C@@H]4[C@@]5(C)CC[C@H](O)C(C)(C)[C@@H]5CC[C@]43C)[C@H]12 [ursolic acid, 3β-Hydroxy-12-ursen-28-ic acid] | – | harmless on humans, and cause no skin irritations |
